# Entries after “also recorded” stand apart in the source; their conditions may differ. Like-named read-outs stand apart in the source and are kept apart here.
# Legend:
# [1] = Multiple-ascending dose trial of Compound 2 in healthy participants; assay type: in vivo, human; conditions: for Cmax / AUC / half-life: human, plasma, oral; for AUC: read-out: AUCtau (mean); for half-life: read-out: t1/2 (median) (converted)
# Procedure: A multiple-ascending dose clinical trial of Compound 2 was performed.
# Compound 2 plasma and urine concentrations were determined using validated liquid chromatography-tandem mass spectrometry assay.
# Plasma samples for Compound 2 concentration and PK sampling were collected pre-dose and at 0.5, 1, 2, 3, 4, 6, 8, 12, and 24 hours after the first dose, at pre-dose on Days 3, 4, 5, 8, 11, and 13 of dosing, and at pre-dose and at 0.5, 1, 2, 3, 4, 6, 8, 12, 24, 48, and 72 hours after 14 days of administration of study medication (placebo or compound). (See Table 16, FIG. 17) PK parameters were estimated via noncompartmental methods using Phoenix® WinNonlin® (Certara, LP, Princeton, N.J.). Concentrations of serum pharmacodynamic (PD) biomarkers apolipoprotein B (Apo B) and sex hormone binding globulin (SHBG) were measured using an immunoassay and serum lipids were determined using spectrophotometry.
# PD sampling was also performed. Percent change from baseline for PD markers were calculated using an ANCOVA model with percent change from baseline as dependent variable, treatment group as fixed effect, and baseline as covariate. Analyses used observed data only without imputation for missing data.
# [2] = system: SD rats fed a high cholesterol diet; assay: Rat hypercholesterolemic model; assay type: in vivo; conditions: single IP dose 0.3 to 30 mpk, 24 h after injection
# Procedure: SD rats were fed a high cholesterol diet for 2 weeks, increasing the serum cholesterol levels ˜4-fold over that time. Single doses of Compound 2 from 0.3 to 30 mpk or a single 30 mpk dose of MGL-3196 were injected IP and serum was analyzed for total serum cholesterol and triglycerides 24 h after the injection.
# [3] = Multiple-ascending dose trial of Compound 1 in healthy participants: safety and PK; assay type: in vivo, human; conditions: for Cmax / Tmax / AUC(0-t) / half-life: human, plasma; for Cmax / AUC(0-t): mean (CV %); for Tmax / half-life: median (min, max)
# Procedure: A multiple-ascending dose clinical trial of Compound 1 was performed.
# [4] = 10 mg, 10 mg QD, Last day (of 14)
compound,measurement,setting,value
"N#Cc1nn(-c2cc(Cl)c(Oc3n[nH]c(=O)c4ccccc34)c(Cl)c2)c(=O)[nH]c1=O [Compound 2, 2-(3,5-dichloro-4-((4-oxo-3,4-dihydrophthalazin-1-yl)oxy)phenyl)-3,5-dioxo-2,3,4,5-tetrahydro-1,2,4-triazine-6-carbonitrile]",AEs by relationship to drug: Not related,[1]; 3 mg QD 14 days (N = 6),1 (16.7%) n (%)
same,AEs by relationship to drug: Possibly related,[1]; 3 mg QD 14 days (N = 6),0 n (%)
same,AEs by relationship to drug: Related,[1]; 3 mg QD 14 days (N = 6),0 n (%)
same,AEs by relationship to drug: Unlikely related,[1]; 3 mg QD 14 days (N = 6),0 n (%)
same,"Subject incidence: Any AE, all CTCAE grades",[1]; 3 mg QD 14 days (N = 6),1 (16.7%) n (%)
same,Subject incidence: Grade 1 AEs,[1]; 3 mg QD 14 days (N = 6),1 (16.7%) n (%)
same,Subject incidence: Grade 2 or higher AEs,[1]; 3 mg QD 14 days (N = 6),0 n (%)
same,Subject incidence: Serious AEs,[1]; 3 mg QD 14 days (N = 6),0 n (%)
same,AEs by relationship to drug: Not related,[1]; 6 mg QD 14 days (N = 6),0 n (%)
same,AEs by relationship to drug: Possibly related,[1]; 6 mg QD 14 days (N = 6),1 (16.7%) n (%)
same,AEs by relationship to drug: Related,[1]; 6 mg QD 14 days (N = 6),0 n (%)
same,AEs by relationship to drug: Unlikely related,[1]; 6 mg QD 14 days (N = 6),0 n (%)
same,"Subject incidence: Any AE, all CTCAE grades",[1]; 6 mg QD 14 days (N = 6),1 (16.7%) n (%)
same,Subject incidence: Grade 1 AEs,[1]; 6 mg QD 14 days (N = 6),1 (16.7%) n (%)
same,Subject incidence: Grade 2 or higher AEs,[1]; 6 mg QD 14 days (N = 6),0 n (%)
same,Subject incidence: Serious AEs,[1]; 6 mg QD 14 days (N = 6),0 n (%)
same,AEs by relationship to drug: Not related,[1]; 10 mg QD 14 days (N = 6),2 (33.3%) n (%)
same,AEs by relationship to drug: Possibly related,[1]; 10 mg QD 14 days (N = 6),0 n (%)
same,AEs by relationship to drug: Related,[1]; 10 mg QD 14 days (N = 6),0 n (%)
same,AEs by relationship to drug: Unlikely related,[1]; 10 mg QD 14 days (N = 6),0 n (%)
same,"Subject incidence: Any AE, all CTCAE grades",[1]; 10 mg QD 14 days (N = 6),2 (33.3%) n (%)
same,Subject incidence: Grade 1 AEs,[1]; 10 mg QD 14 days (N = 6),2 (33.3%) n (%)
same,Subject incidence: Grade 2 or higher AEs,[1]; 10 mg QD 14 days (N = 6),0 n (%)
same,Subject incidence: Serious AEs,[1]; 10 mg QD 14 days (N = 6),0 n (%)
same,Ctau (mean),"[1]; Day 14, 1 mg QD",25.7 ng/mL
same,Ctau (mean),"[1]; Day 14, 3 mg QD",77.9 ng/mL
same,Ctau (mean),"[1]; Day 14, 6 mg QD",175 ng/mL
same,Ctau (mean),"[1]; Day 14, 10 mg QD",196 ng/mL
same,GGT,[1]; QD 14 days,Dose-dependent GGT increases
same,TSH or free T3,[1]; QD 14 days,without clear change
same,free T4,[1]; QD 14 days,declined in dose-dependent fashion
same,free testosterone levels,[1]; QD 14 days,no significant change
same,heart rate and blood pressure,[1]; QD 14 days,remained stable
same,mean ALT values,[1]; QD 14 days,not significantly different from placebo
same,oral bioavailability and PK variability,[1]; QD 14 days,good oral bioavailability with low PK variability
same,total testosterone,[1]; QD 14 days,Dose-dependent total testosterone increases
same,safety and tolerability,"[1]; QD 14 days, up to 10 mg",well-tolerated
same,HDL-c,[1]; day 15,did not significantly change
same,"total cholesterol, LDL-c, Apo B, and triglycerides","[1]; day 15, 10 mg dose cohort",significant reductions
same,Cmax,"[1]; Day 14, 1 mg QD",80.3 ng/mL
same,AUC,"[1]; Day 14, 1 mg QD",1090 ng·h/mL
same,half-life,"[1]; Day 14, 1 mg QD",19.5 h
same,Cmax,"[1]; Day 14, 3 mg QD",291 ng/mL
same,AUC,"[1]; Day 14, 3 mg QD",3600 ng·h/mL
same,half-life,"[1]; Day 14, 3 mg QD",16 h
same,Cmax,"[1]; Day 14, 6 mg QD",699 ng/mL
same,AUC,"[1]; Day 14, 6 mg QD",8310 ng·h/mL
same,half-life,"[1]; Day 14, 6 mg QD",15.8 h
same,Cmax,"[1]; Day 14, 10 mg QD",996 ng/mL
same,AUC,"[1]; Day 14, 10 mg QD",10600 ng·h/mL
same,half-life,"[1]; Day 14, 10 mg QD",15.4 h
same,SHBG,"[1]; multiple doses, even at 3 mg QD",significant and dose-dependent increases
same,reduction of serum triglycerides from time 0,[2],30-80%
same,reduction of total cholesterol in the serum,[2],30-70%
"COC1CCN(c2ncc(OC/C(=C/F)CN)cn2)CC1 [Compound 1, (E)-3-fluoro-2-(((2-(4-methoxypiperidin-1-yl)pyrimidin-5-yl)oxy)methyl)prop-2-en-1-amine]",Subject incidence of TEAEs considered possibly treatment-related,[3]; 1 mg QD 7 days (n = 6),1 (16.7) n (%)
same,Subject incidence of any TEAE,[3]; 1 mg QD 7 days (n = 6),2 (33.3) n (%)
same,TEAE frequency: Back pain,[3]; 1 mg QD 7 days (n = 6),0
same,TEAE frequency: Catheter site inflammation,[3]; 1 mg QD 7 days (n = 6),0
same,TEAE frequency: Contusion,[3]; 1 mg QD 7 days (n = 6),0
same,TEAE frequency: Dermatitis contact,[3]; 1 mg QD 7 days (n = 6),1 (16.7)
same,TEAE frequency: Diarrhea,[3]; 1 mg QD 7 days (n = 6),0
same,TEAE frequency: Dizziness,[3]; 1 mg QD 7 days (n = 6),1 (16.7)
same,TEAE frequency: Medical device site reaction,[3]; 1 mg QD 7 days (n = 6),0
same,TEAE frequency: Rhinitis,[3]; 1 mg QD 7 days (n = 6),0
same,TEAE frequency: headache,[3]; 1 mg QD 7 days (n = 6),1 (12.5)
same,Subject incidence of TEAEs considered possibly treatment-related,[3]; 4 mg QD 7 days (n = 6),0 n (%)
same,Subject incidence of any TEAE,[3]; 4 mg QD 7 days (n = 6),2 (33.3) n (%)
same,TEAE frequency: Back pain,[3]; 4 mg QD 7 days (n = 6),0
same,TEAE frequency: Catheter site inflammation,[3]; 4 mg QD 7 days (n = 6),0
same,TEAE frequency: Contusion,[3]; 4 mg QD 7 days (n = 6),0
same,TEAE frequency: Dermatitis contact,[3]; 4 mg QD 7 days (n = 6),2 (33.3)
same,TEAE frequency: Diarrhea,[3]; 4 mg QD 7 days (n = 6),0
same,TEAE frequency: Dizziness,[3]; 4 mg QD 7 days (n = 6),0
same,TEAE frequency: Medical device site reaction,[3]; 4 mg QD 7 days (n = 6),0
same,TEAE frequency: Rhinitis,[3]; 4 mg QD 7 days (n = 6),0
same,TEAE frequency: headache,[3]; 4 mg QD 7 days (n = 6),0
same,time to steady state,[3]; 10 mg QD,7 days
same,Subject incidence of TEAEs considered possibly treatment-related,[3]; 10 mg QD 14 days (n = 6),0 n (%)
same,Subject incidence of any TEAE,[3]; 10 mg QD 14 days (n = 6),6 (100) n (%)
same,TEAE frequency: Back pain,[3]; 10 mg QD 14 days (n = 6),0
same,TEAE frequency: Catheter site inflammation,[3]; 10 mg QD 14 days (n = 6),0
same,TEAE frequency: Contusion,[3]; 10 mg QD 14 days (n = 6),0
same,TEAE frequency: Dermatitis contact,[3]; 10 mg QD 14 days (n = 6),0
same,TEAE frequency: Diarrhea,[3]; 10 mg QD 14 days (n = 6),0
same,TEAE frequency: Dizziness,[3]; 10 mg QD 14 days (n = 6),0
same,TEAE frequency: Medical device site reaction,[3]; 10 mg QD 14 days (n = 6),6 (100)
same,TEAE frequency: Rhinitis,[3]; 10 mg QD 14 days (n = 6),1 (16.7)
same,TEAE frequency: headache,[3]; 10 mg QD 14 days (n = 6),0
same,half-life versus dose,"[3]; 1, 4, 10 mg QD",increased with dose
same,"plasma PK exposure, dose proportionality",[3]; between dose groups on Day 1,greater than dose proportional
same,Cmax,"[3]; 1 mg, 1 mg QD, Day 1",0.568 ng/mL
same,Tmax,"[3]; 1 mg, 1 mg QD, Day 1",1.53 h
same,AUC(0-t),"[3]; 1 mg, 1 mg QD, Last day (of 7)",13.3 ng·h/mL
same,Cmax,"[3]; 1 mg, 1 mg QD, Last day (of 7)",2.75 ng/mL
same,Tmax,"[3]; 1 mg, 1 mg QD, Last day (of 7)",2.51 h
same,AUC(0-t),"[3]; 4 mg, 4 mg QD, Day 1",17.1 ng·h/mL
same,Cmax,"[3]; 4 mg, 4 mg QD, Day 1",5.11 ng/mL
same,Tmax,"[3]; 4 mg, 4 mg QD, Day 1",2.02 h
same,AUC(0-t),"[3]; 4 mg, 4 mg QD, Last day (of 7)",198 ng·h/mL
same,Cmax,"[3]; 4 mg, 4 mg QD, Last day (of 7)",18.6 ng/mL
same,Tmax,"[3]; 4 mg, 4 mg QD, Last day (of 7)",3.03 h
same,AUC(0-t),"[3]; 10 mg, 10 mg QD, Day 1",102 ng·h/mL
same,Cmax,"[3]; 10 mg, 10 mg QD, Day 1",17.7 ng/mL
same,Tmax,"[3]; 10 mg, 10 mg QD, Day 1",1.9 h
same,AUC(0-t),[3]; [4],656 ng·h/mL
same,Cmax,[3]; [4],47.5 ng/mL
same,Tmax,[3]; [4],3.98 h
same,half-life,"[3]; 1 mg QD, Last day (of 7)",2.27 h
same,half-life,"[3]; 4 mg QD, Last day (of 7)",6.71 h
same,half-life,"[3]; 10 mg QD, Last day (of 14)",13.3 h
same,Subject incidence of TEAEs considered possibly treatment-related,[3]; overall Compound 1 (n = 18),1 (5.6) n (%)
same,Subject incidence of any TEAE,[3]; overall Compound 1 (n = 18),10 (55.6) n (%)
same,TEAE frequency: Back pain,[3]; overall Compound 1 (n = 18),0
same,TEAE frequency: Catheter site inflammation,[3]; overall Compound 1 (n = 18),0
same,TEAE frequency: Contusion,[3]; overall Compound 1 (n = 18),0
same,TEAE frequency: Dermatitis contact,[3]; overall Compound 1 (n = 18),3 (16.7)
same,TEAE frequency: Diarrhea,[3]; overall Compound 1 (n = 18),0
same,TEAE frequency: Dizziness,[3]; overall Compound 1 (n = 18),1 (5.6)
same,TEAE frequency: Medical device site reaction,[3]; overall Compound 1 (n = 18),6 (33.3)
same,TEAE frequency: Rhinitis,[3]; overall Compound 1 (n = 18),1 (5.6)
same,TEAE frequency: headache,[3]; overall Compound 1 (n = 18),1 (5.6)
same,safety and tolerability,[3]; up to 10 mg QD for 14 days,mild (grade 1); also recorded: safe and well tolerated
